Assay results: patent publication US8012944B2, “Method for treating cancer using IAP antisense oligomer and chemotherapeutic agent” (Pharmascience Inc., priority 2003, dated 2011)
“Also recorded” adds a separate entry of the source.

What was measured:
[1] = tested on: subcutaneous H460 human non-small-cell lung tumor xenografts; assay: Systemic (i.p.) oligonucleotides with or without vinorelbine in H460 xenografts; type: in vivo, SCID-RAG2 mice; conditions: for mean tumor size: day 24, control 0.75
Method: Initial systemic PS-oligonucleotide studies were designed without any chemotherapeutic agents. SCID-RAG2 mice were inoculated with H460 human lung carcinoma cells (s.c. shoulder injection of 10^6 cells) and treatments with G4 and F3 AS PS-oligonucleotides, as well as a scrambled control, were initiated three days after tumor inoculation. Nucleobase oligomer injections were administered i.p. at 12.5 mg/kg three times a week for three weeks. At the end of the treatment period, mean tumor sizes in the groups treated with either G4 or F3 AS oligonucleotides were ˜50% smaller than in the group treated with a scrambled control oligonucleotides (FIG. 15). The same treatment protocol was tested on female SCID-RAG2 mice inoculated orthotopically with MDA-MB-435/LCC6 human breast carcinoma cells. Two weeks after the last treatment (day 35) tumor volumes of mice treated with F3, C5 or G4 AS oligonucleotides were 70%, 60%, and 45%, respectively, smaller than vehicle controls (FIG. 16).
We conducted additional examination of the antitumor effects of G4 AS oligonucleotides in SCID-RAG2 mice bearing xenografts of H460 human non-small-cell lung tumors implanted subcutaneously. Saline-treated control tumors grew reproducibly to a size of 0.75 cm^3 within approximately 24 days (FIG. 17). Oligonucleotide treatments were initiated three days after tumor cell inoculation. G4 AS oligonucleotides (5 to 15 mg/kg) were administered using a treatment schedule of i.p. injections given once a day on days 3-7, 10-14, and 17-21. The treatment with 5 or 15 mg/kg G4 AS oligonucleotides greatly delayed tumor growth: on day 24 mean tumor sizes were 0.75, 0.45 and 0.29 cm^3 in control, 5 and 15 mg/kg treated groups, respectively (FIG. 18A). There was a dose-dependent inhibition of tumor growth. […] A dose of 15 mg/kg was selected for the future combination treatment regimens with anticancer drugs.
The human non-small cell lung cancer cell line (large cell type) NCI-H460 (H460) was obtained from ATCC and maintained in RPMI 1640 supplemented with 10% FCS at 37° C. in a humidified atmosphere containing 5% CO2. Cells were used in exponential growth phase, up to a maximum of 25 in vitro passages. Male SCID-RAG2 mice (7-9 weeks old, 23-26 g) were obtained from British Columbia Cancer Agency Joint Animal Facility breeding colony and kept in aseptic environments. A tumor model of NCI-H460 cells in SCID-RAG2 mice was established by subcutaneous implantation of 1×10^6 NCI-H460 cells on the back of mice.
Efficacy experiments were conducted in male RAG2 immunodeficient mice bearing NCI-H460 tumours or female RAG2 mice bearing LCC6 tumors. Treatments were commenced on day 3 after tumor inoculation. Saline (controls), G4 AS oligonucleotides (5 or 15 mg/kg), or G4 SC oligonucleotides (5 or 15 mg/kg) were administered i.p. daily for five doses a week over a three week regimen. Vinorelbine (VNB, 5 or 10 mg/kg) was administered i.v. via the tail vein, either alone or in combination with oligonucleotides, at day 3, 7, 11 and 17 after tumor inoculation. When oligonucleotides were administered in combination with VNB, the drug treatment was performed four hours after ODN treatment.
Mice were observed daily. Body weight measurements and signs of stress (e.g., lethargy, ruffled coat, ataxia) were used to detect possible toxicities. Animals with ulcerated tumor, or tumor volumes of 1 cm^3 or greater were killed. Digital caliper measurements of tumors were converted into mean tumor size (cm^3) using the formula: ½[length (cm)]×[width (cm)]^2. An average tumor size per mouse was used to calculate the group mean tumor size±SE (n=6 mice) from at least two independent experiments per group.

human XIAP protein = assay: XIAP protein in H460 tumor xenografts (western blot); type: in vivo, mouse xenograft
Method: To correlate the tumor growth inhibitory effects of G4 AS oligonucleotides with XIAP protein expression, we examined the changes in XIAP expression at the end of the in vivo treatment with 15 mg/kg of G4 AS and SC oligonucleotides. At day 21 or 24 post-tumor inoculation when tumors reached 1 cm^3 in size (FIG. 17), tumors were harvested and lysates from tumor homogenates were used for western blot analysis. XIAP and β-actin antibodies against the human protein were used, allowing for determination of human XIAP levels obtained from tumor cells specimens without contamination from XIAP derived from mouse cells. […]
The cells or tumor tissue samples were lysed with ice-cold lysis buffer (50 mM Tris, 150 mM NaCl, 2.5 mM EDTA, 0.1% SDS, 0.5% sodium deoxycholate, 1% NP-40, 0.02% sodium azide) containing protease inhibitors (Complete-Mini protease inhibitor tablets; Boehringer Mannheim GmBH, Mannheim, Germany). […] Protein content in the lysed extracts was determined using a detergent-compatible Bio-Rad assay (Bio-Rad Labs, Hercules, Calif.). […] Proteins were detected by enhanced chemiluminescence (ECL; Amersham Pharmacia Biotech, Buckinghamshire, England) and visualized after exposure to Kodak autoradiography film. Scanning densitometry (Molecular Dynamics, Sunnyvale, Calif.) was performed to quantify band intensities by volume/area integration. […]

H460 cells = assay: Nuclear morphology (DAPI staining); type: cell-based, human; conditions: 1.2 μM
Method: Cells were treated with liposome-oligonucleotde complexes for 4.5 h, and incubated for another 48 h at 37° C. in the medium without transfection reagent or oligonucleotides. Cells were harvested and stained with 0.10 μg/ml DAP1 (4′, 6-diamidino-2-2-phenylindole) for 30 min at room temperature. Cells were placed on a glass slide, cytospun, and viewed with a Leica microscope and 40× objective lens under UV fluorescent illumination. Digital images were captured using Imagedatabase V. 4.01 Software (Leica, Germany).

GCTGAGTCTCCATATTGCC [G4 AS] (chemistry not given here)
tumor size as % of control mean tumor size ([1]; 15 mg/kg i.p.): 39%
mean tumor size smaller than scrambled control group ([1]; PS-oligonucleotides 12.5 mg/kg i.p. three times a week for three weeks, end of treatment): ~50%
mean tumor size ([1]; 5 mg/kg i.p.): 0.45 cm^3
mean tumor size ([1]; 15 mg/kg i.p.): 0.29 cm^3
antitumor efficacy on H460 xenografts (in words) ([1]; systemic, oligonucleotide 15 mg/kg i.p., VNB 5 or 10 mg/kg i.v.): significant sequence-specific growth inhibitory effects
down-regulation of XIAP protein in tumors vs control tumors (human XIAP protein; 15 mg/kg, day 21 or 24, P<0.005): approximately 85%
down-regulation of XIAP protein in tumor xenografts (human XIAP protein; systemic administration): 85%
nuclear morphological changes characteristic of apoptosis (H460 cells): underwent morphological changes characteristic of apoptosis; also recorded: significant nuclear DNA condensation and fragmentation
